From paper PMC9886266, “New [1,2,4]triazolo[4,3-c]quinazolines as intercalative Topo II inhibitors: Design, synthesis, biological evaluation, and in silico studies” (PLOS ONE, 2023)

Key:
[1] = target: Topo II α and supercoiled pBR322 DNA (Homo sapiens, UniProt P11388); assay: Topo II-mediated DNA cleavage assay; type: biochemical
Experimental: The Topo II inhibitors may act through two pathways. Firstly, it can stabilize the Topo II-DNA covalent complexes leading to the formation of linear DNA (Topo II poisons). Secondly, it can block the catalytic site of Topo II (Topo II catalytic inhibitors).
Topo II-mediated DNA cleavage assay was carried out according the reported method by Huang et al. as follows.
Topo II α (10 U), supercoiled pBR322 DNA (0.2 μg) and compound 16 at concentration of 5 and 10 μM were added in Topo II buffer ([…], pH 8.0, 150 mM NaCl, 10 mM MgCl2 2mM ATP, 0.5mM dithiothreitol, and 30 μg/mL BSA) of 20 μL volume. After incubating for 6 min at 37°C and then respectively adding 2 μL of 10% SDS, 2 μL of 250mM NaEDTA, pH 8.0, 2 μL of 0.8 mg/mL Proteinase K. Following reactions were incubated for another 30 min at 45°C. Samples were mixed with 4 μL of 6×loading buffer, heated at 70°C for 2 min and subjected to electrophoresis in a 1% agarose gel in 1×TAE buffer (30 mL) with 1 μL Gel Red. Finally, DNA bands were visualized by using UV light, photographed by using Alpha Innotech digital imaging system.
After that, the DNA was run on 1% agarose gel in BioRad gel electrophoresis system for 1–2 h followed by staining with GelRedTM stain for 2 h and destained for 15 min with TAE buffer. The gel was imaged via BioRad’s Gel DocTMEZ system. Both supercoiled and linear strands DNA were incorporated in the gel as markers for DNA-Topo II intercalators. The results of IC50 values were calculated using the GraphPad Prism version 7. Each reaction was performed in duplicate, and at least three independent determinations of each IC50 were made.
S2.3. DNA/Methyl Green Assay […]
methyl green dye method described by Burres et al. Activated Calf Thymus DNA (Merk, Germany) was treated with methyl green (Merk, Germany), then the synthesized compounds were applied to displace the methyl green dye, producing equivalent color. The results were reported […]
S2.4. Topo II-mediated DNA cleavage assay […]

HCT-116 cells = assay: Flow cytometry cell cycle analysis (propidium iodide); type: cell-based, human; conditions: HCT-116, 2.44 μM, 48 h, mean ± SEM
Vero cells = assay: In vitro cytotoxicity against normal cell line; type: cell-based
Source text: Although Vero cell are not human cell, it was reported that Vero cells can be used as normal cells to validate the toxicity of the synthesized compounds [43].

Sequence of Topo II α and supercoiled pBR322 DNA (P11388 whole entry): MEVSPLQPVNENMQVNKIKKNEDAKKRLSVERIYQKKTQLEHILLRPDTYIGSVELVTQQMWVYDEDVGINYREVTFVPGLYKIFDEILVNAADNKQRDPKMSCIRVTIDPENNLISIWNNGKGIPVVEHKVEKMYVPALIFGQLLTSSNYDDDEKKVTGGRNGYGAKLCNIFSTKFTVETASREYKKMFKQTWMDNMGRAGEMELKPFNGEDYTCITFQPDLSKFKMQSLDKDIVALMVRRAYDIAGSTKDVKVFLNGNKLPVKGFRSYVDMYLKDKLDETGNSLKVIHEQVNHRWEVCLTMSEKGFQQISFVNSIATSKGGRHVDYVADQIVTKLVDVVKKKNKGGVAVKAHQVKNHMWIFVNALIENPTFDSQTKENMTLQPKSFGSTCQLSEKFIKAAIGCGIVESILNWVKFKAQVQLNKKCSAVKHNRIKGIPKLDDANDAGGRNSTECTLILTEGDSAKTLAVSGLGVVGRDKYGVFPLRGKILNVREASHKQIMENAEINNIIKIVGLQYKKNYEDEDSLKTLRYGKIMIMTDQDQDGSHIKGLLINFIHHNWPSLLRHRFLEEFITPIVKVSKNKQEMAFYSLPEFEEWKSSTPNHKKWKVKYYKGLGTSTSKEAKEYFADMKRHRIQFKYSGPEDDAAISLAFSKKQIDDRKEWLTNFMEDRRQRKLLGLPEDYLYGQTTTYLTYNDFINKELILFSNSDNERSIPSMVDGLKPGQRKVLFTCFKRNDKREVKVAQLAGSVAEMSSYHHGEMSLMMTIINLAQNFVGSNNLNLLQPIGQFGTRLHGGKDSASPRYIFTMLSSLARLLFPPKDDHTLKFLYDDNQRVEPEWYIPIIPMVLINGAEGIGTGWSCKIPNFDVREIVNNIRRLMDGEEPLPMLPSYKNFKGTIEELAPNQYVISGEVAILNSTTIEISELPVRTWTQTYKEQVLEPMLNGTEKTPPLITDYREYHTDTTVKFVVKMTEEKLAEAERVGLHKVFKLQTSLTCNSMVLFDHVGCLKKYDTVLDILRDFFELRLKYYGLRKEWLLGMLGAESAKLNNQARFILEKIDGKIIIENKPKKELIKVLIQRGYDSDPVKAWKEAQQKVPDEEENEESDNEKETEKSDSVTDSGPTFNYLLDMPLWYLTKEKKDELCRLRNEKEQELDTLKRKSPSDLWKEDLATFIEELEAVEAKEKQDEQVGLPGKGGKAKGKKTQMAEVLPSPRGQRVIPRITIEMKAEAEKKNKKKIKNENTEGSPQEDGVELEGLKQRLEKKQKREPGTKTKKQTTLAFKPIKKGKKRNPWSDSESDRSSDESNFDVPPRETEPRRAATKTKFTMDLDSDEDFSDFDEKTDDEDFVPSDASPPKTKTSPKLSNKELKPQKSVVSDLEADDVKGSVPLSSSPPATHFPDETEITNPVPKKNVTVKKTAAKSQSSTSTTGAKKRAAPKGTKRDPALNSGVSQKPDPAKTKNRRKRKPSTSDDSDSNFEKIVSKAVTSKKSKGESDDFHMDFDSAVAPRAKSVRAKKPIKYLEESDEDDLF

## CCCNc1nc2ccccc2c2nnc(C(F)(F)F)n12 [Compound 16, N-Propyl-3-(trifluoromethyl)-[1,2,4]triazolo[4,3-c]quinazolin-5-amine]
[1]; 5 μM
  Effect on relaxation of supercoiled DNA by Topo II: induced relaxation for the DNA
[1]; 10 μM
  Effect on relaxation of supercoiled DNA by Topo II: blocked the formation of relaxed DNA
[1]; all concentrations (5 and 10 μM)
  Formation of linear DNA: the linear DNA was not formed
HCT-116 cells
  Cell cycle distribution % G2/M: 36.89 ± 1.81 %
  Cell cycle distribution %G1: 19.05 ± 1.38 %
  Cell cycle distribution %S: 42.76 ± 2.48 %
  Cell cycle distribution %Sub-G1: 1.30 ± 0.18%
Vero cells; Chlorocebus sabaeus, Vero
  IC50: 63.4 µM
Vero cells; Vero vs HCT-116
  Selectivity: activity against HCT-116 compared with normal Vero cells: 26 fold
Vero cells; Vero vs HepG2
  Selectivity: activity against HepG2 compared with normal Vero cells: 10 fold
Vero cells; compared with sorafenib
  Toxicity to Vero cells less than that of sorafenib: about 2.5 fold
